According to ChEMBL document CHEMBL5390286, “Discovery of Ingenane Diterpenoids from Euphorbia hylonoma as Antiadipogenic Agents” (J Nat Prod, 2023):
Active and inactive are the calls of the source. The calls are words filed in the database; no cut-off is given here.

How the values were obtained:
3T3-L1 [1] = experiment: Anti-adipogenic efficacy in mouse 3T3-L1 cells assessed as inhibition of TG level by Oil Red O staining based light microscopic analysis; assay type: functional, cell-based
3T3-L1 [2] = experiment: Anti-adipogenic efficacy in mouse 3T3-L1 cells assessed as reduction in C/EBPbeta protein level by Western blot analysis; assay type: functional, cell-based; settings: dose 0.1-10 µM
3T3-L1 [3] = experiment: Anti-adipogenic efficacy in mouse 3T3-L1 cells assessed as increase in p-ACC level at 0.1 to 10 uM by Western blot analysis; assay type: functional, cell-based; settings: dose 0.1-10 µM
3T3-L1 [4] = experiment: Anti-adipogenic efficacy in mouse 3T3-L1 cells assessed as reduction in FAS mRNA level by RT-qPCR analysis; assay type: functional, cell-based; settings: dose 0.1-10 µM
3T3-L1 [5] = experiment: Anti-adipogenic efficacy in mouse 3T3-L1 cells assessed as increase in p-AMPK level at 0.1 to 10 uM by Western blot analysis; assay type: functional, cell-based; settings: dose 0.1-10 µM
3T3-L1 [6] = experiment: Anti-adipogenic efficacy in mouse 3T3-L1 cells assessed as inhibition of TG level at 1 uM by Oil Red O staining based light microscopy analysis; assay type: functional, cell-based
3T3-L1 [7] = experiment: Anti-adipogenic efficacy in mouse 3T3-L1 cells assessed as reduction in C/EBPbeta mRNA level by RT-qPCR analysis; assay type: functional, cell-based; settings: dose 0.1-10 µM
3T3-L1 [8] = experiment: Anti-adipogenic efficacy in mouse 3T3-L1 cells assessed as reduction in PPARgamma mRNA level by RT-qPCR analysis; assay type: functional, cell-based; settings: dose 0.1-10 µM
3T3-L1 [9] = experiment: Anti-adipogenic efficacy in mouse 3T3-L1 cells assessed as reduction in SCD-1 mRNA level by RT-qPCR analysis; assay type: functional, cell-based; settings: dose 0.1-10 µM
3T3-L1 [10] = experiment: Anti-adipogenic efficacy in mouse 3T3-L1 cells assessed as reduction in PPARgamma protein level by Western blot analysis; assay type: functional, cell-based; settings: dose 0.1-10 µM
3T3-L1 [11] = experiment: Anti-adipogenic efficacy in mouse 3T3-L1 cells assessed as reduction in SCD-1 protein level by Western blot analysis; assay type: functional, cell-based; settings: dose 0.1-10 µM
3T3-L1 [12] = experiment: Anti-adipogenic efficacy in mouse 3T3-L1 cells assessed as reduction in FAS protein level by Western blot analysis; assay type: functional, cell-based; settings: dose 0.1-10 µM
3T3-L1 [13] = experiment: Cytotoxicity against mouse 3T3-L1 cells assessed as reduction in cell viability at 20 uM by CCK-8 assay; assay type: toxicity, cell-based; settings: 3t3-l1, 20 µM

| Compound | EC50 (3T3-L1 [1]) [nM] | Activity (3T3-L1 [2]) | Activity (3T3-L1 [3]) | Activity (3T3-L1 [4]) | Activity (3T3-L1 [5]) | Activity (3T3-L1 [6]) | Activity (3T3-L1 [7]) | Activity (3T3-L1 [8]) | Activity (3T3-L1 [9]) | Activity (3T3-L1 [10]) | Activity (3T3-L1 [11]) | Activity (3T3-L1 [12]) | Activity (3T3-L1 [13]) |
| --- | --- | --- | --- | --- | --- | --- | --- | --- | --- | --- | --- | --- | --- |
| C=C1C[C@]2(O)C(=O)C(C)(C)C[C@H]2C2=CC(=O)[C@]3(C[C@H](C)[C@H](OC(=O)c4ccccc4)[C@@H]3[C@H]1OC(=O)c1ccccc1)O2 | 200 | – | – | – | – | – | – | – | – | – | – | – | – |
| CC1=C[C@@H]2C(=O)[C@]3(C=C(C)[C@H](OC(=O)C(C)C(C)C)[C@@]3(O)[C@@H]1O)[C@H](C)C[C@@H]1[C@H]2C1(C)C (stereo not given in full) | 600 | Dose-Dependent Effect | Active | Dose-Dependent Effect | Active | Active | Dose-Dependent Effect | Dose-Dependent Effect | Dose-Dependent Effect | Dose-Dependent Effect | Dose-Dependent Effect | Dose-Dependent Effect | Non-Toxic |
| C=C1C[C@]23O[C@@](O)([C@@]4(O)C[C@H](C)[C@H](OC(=O)c5ccccc5)[C@@H]4[C@H]1OC(=O)c1ccccc1)[C@]1(C)O[C@](C)(CC2=O)C[C@H]31 | 360 | – | – | – | – | – | – | – | – | – | – | – | – |
